Test results reported in PubChem BioAssay (NCI).
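Each compound was tested at five concentrations against cells in 96-well plates for 48 hours. TGI is the concentration that stops growth completely.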

Experiments:
Assay in all cases: NCI anticancer screen, dose series, 48 h
OVCAR-3 ovarian = tested on: OVCAR-3 ovarian
M14 melanoma = tested on: M14 melanoma
SW-620 colon = tested on: SW-620 colon
OVCAR-8 ovarian = tested on: OVCAR-8 ovarian
SN12C renal = tested on: SN12C renal
MDA-N = tested on: MDA-N
SF-268 CNS = tested on: SF-268 CNS
DU-145 prostate = tested on: DU-145 prostate
NCI-H23 lung = tested on: NCI-H23 lung
BT-549 breast = tested on: BT-549 breast
ACHN renal = tested on: ACHN renal
KM12 colon = tested on: KM12 colon
UACC-62 melanoma = tested on: UACC-62 melanoma
HCT-116 colon = tested on: HCT-116 colon
SK-OV-3 ovarian = tested on: SK-OV-3 ovarian
NCI-H522 lung = tested on: NCI-H522 lung
HCC-2998 colon = tested on: HCC-2998 colon
LOX IMVI melanoma = tested on: LOX IMVI melanoma
SK-MEL-28 melanoma = tested on: SK-MEL-28 melanoma
SF-539 CNS = tested on: SF-539 CNS

Row | SMILES | TGI (OVCAR-3 ovarian) | TGI (M14 melanoma) | TGI (SW-620 colon) | TGI (OVCAR-8 ovarian) | TGI (SN12C renal) | TGI (MDA-N) | TGI (SF-268 CNS) | TGI (DU-145 prostate) | TGI (NCI-H23 lung) | TGI (BT-549 breast) | TGI (ACHN renal) | TGI (KM12 colon) | TGI (UACC-62 melanoma) | TGI (HCT-116 colon) | TGI (SK-OV-3 ovarian) | TGI (NCI-H522 lung) | TGI (HCC-2998 colon) | TGI (LOX IMVI melanoma) | TGI (SK-MEL-28 melanoma) | TGI (SF-539 CNS)
1 | CC1(CCCO)CCCCCC(C)(CCCO)C1=O (centres undefined) | > 100 µM | > 100 µM | > 100 µM | > 100 µM | > 100 µM | > 100 µM | > 100 µM | > 100 µM | > 100 µM | > 100 µM | > 100 µM | > 100 µM | > 100 µM | > 100 µM | > 100 µM | > 100 µM | > 100 µM | > 100 µM | > 100 µM | –
2 | COc1ccc(N=C2SC(=N/N=c3\sc4ccccc4n3C)SC2=Nc2ccc(OC)cc2)cc1 | > 100 µM | > 100 µM | > 100 µM | > 100 µM | > 100 µM | > 100 µM | > 100 µM | > 100 µM | > 100 µM | > 100 µM | > 100 µM | > 100 µM | > 100 µM | > 100 µM | > 100 µM | > 100 µM | > 100 µM | – | > 100 µM | > 100 µM
3 | NC(=O)C(N)Cc1ccc(O)cn1 (centres undefined) | > 100 µM | – | > 100 µM | > 100 µM | > 100 µM | > 100 µM | > 100 µM | > 100 µM | > 100 µM | > 100 µM | > 100 µM | > 100 µM | – | > 100 µM | – | > 100 µM | > 100 µM | > 100 µM | > 100 µM | > 100 µM
4 | O=C1OC[C@@H]2Cc3cc4c(cc3[C@H](c3ccc5c(c3)OCO5)[C@@H]12)OCO4 | > 25 µM | > 25 µM | – | > 25 µM | > 25 µM | 21.6 µM | – | > 25 µM | > 25 µM | > 25 µM | > 25 µM | > 25 µM | – | > 25 µM | – | – | > 25 µM | > 25 µM | > 25 µM | –
5 | C=CCNC1=C2C[C@@H](C)C[C@@H](OC)[C@H](OC(=O)CCCCN)[C@H](C)/C=C(\C)[C@@H](OC(N)=O)[C@H](OC)/C=C\C=C(/C)C(=O)NC(=CC1=O)C2=O | 7.66 µM | 27 µM | 55.1 µM | 37.3 µM | 27.1 µM | 22 µM | 32.8 µM | 18.5 µM | 30 µM | 33.4 µM | 34 µM | 18 µM | 27.7 µM | 28 µM | 19.9 µM | 28.8 µM | 13.6 µM | 27.5 µM | 36.9 µM | –
6 | CC(C)(Cc1ccccc1)NC1=NCCO1 | > 100 µM | > 100 µM | > 100 µM | > 100 µM | – | > 100 µM | – | > 100 µM | > 100 µM | > 100 µM | > 100 µM | > 100 µM | > 100 µM | > 100 µM | > 100 µM | > 100 µM | > 100 µM | > 100 µM | > 100 µM | > 100 µM
7 | O=c1[nH]c(-c2ccc3ccccc3c2)nc2ccccc12 | > 100 µM | > 100 µM | > 100 µM | 54.4 µM | > 100 µM | > 100 µM | > 100 µM | > 100 µM | > 100 µM | > 100 µM | 80.2 µM | > 100 µM | > 100 µM | > 100 µM | > 100 µM | > 100 µM | > 100 µM | > 100 µM | > 100 µM | –
8 | COc1cc(Nc2cnc3cc(F)c(F)cc3n2)cc(OC)c1OC | > 100 µM | > 100 µM | > 100 µM | > 100 µM | > 100 µM | > 100 µM | > 100 µM | > 100 µM | > 100 µM | > 100 µM | > 100 µM | > 100 µM | > 100 µM | > 100 µM | > 100 µM | > 100 µM | – | > 100 µM | > 100 µM | > 100 µM
9 | CCn1c(-c2cc(OC)cc(OC)c2)nc2c1C(=O)c1ccccc1C2=O | > 100 µM | > 100 µM | > 100 µM | > 100 µM | > 100 µM | > 100 µM | > 100 µM | > 100 µM | > 100 µM | > 100 µM | > 100 µM | > 100 µM | > 100 µM | > 100 µM | > 100 µM | 87.9 µM | > 100 µM | – | > 100 µM | > 100 µM
10 | CC1CC(N)=Nc2ccccc2N1 (centres undefined) | > 100 µM | > 100 µM | > 100 µM | > 100 µM | > 100 µM | > 100 µM | > 100 µM | > 100 µM | > 100 µM | > 100 µM | > 100 µM | > 100 µM | > 100 µM | > 100 µM | > 100 µM | > 100 µM | > 100 µM | > 100 µM | > 100 µM | –
11 | N#C/C(C(=O)Nc1ccccc1)=C(/N)N1CCOCC1 | > 100 µM | > 100 µM | > 100 µM | > 100 µM | > 100 µM | > 100 µM | – | > 100 µM | > 100 µM | > 100 µM | > 100 µM | > 100 µM | > 100 µM | > 100 µM | > 100 µM | – | > 100 µM | > 100 µM | > 100 µM | > 100 µM
12 | O=C1N=c2ccccc2=C1c1c(O)[nH]c2ccccc12 | 41.1 µM | > 100 µM | > 100 µM | 66.7 µM | 51.5 µM | > 100 µM | > 100 µM | 54.6 µM | 69.2 µM | 96.2 µM | 37.1 µM | > 100 µM | 39.2 µM | 88.3 µM | > 100 µM | 25.6 µM | 63.5 µM | 49.9 µM | > 100 µM | –
13 | Clc1c(Cl)c(Cl)c2nn(C3CCCO3)nc2c1Cl (centres undefined) | > 100 µM | > 100 µM | – | > 100 µM | > 100 µM | > 100 µM | > 100 µM | > 100 µM | > 100 µM | 80.5 µM | – | – | > 100 µM | > 100 µM | > 100 µM | > 100 µM | > 100 µM | – | – | > 100 µM
